Assay: molar heat capacity at saturation pressure
Conditions: Small (less than 1 g) adiabatic calorimetry

C=CC(C)(C)O [2-methyl-3-buten-2-ol]
molar heat capacity [J/K/mol]
Conditions	Crystal 1	Liquid
169.35 K	120.3	–
169.77 K	120.8	–
170 K	121	–
171.3 K	122.5	–
172.07 K	123.4	–
173.24 K	124.6	–
174.35 K	125.9	–
175.17 K	126.8	–
176.62 K	128.4	–
177.09 K	128.8	–
178.87 K	130.7	–
179 K	130.8	–
179.83 K	131.6	–
180 K	131.9	–
180.91 K	132.7	–
181.12 K	133	–
182.29 K	134.1	–
182.8 K	134.7	–
183.35 K	135.2	–
184.61 K	136.5	–
184.69 K	136.5	–
185.57 K	137.5	–
186.58 K	138.4	–
186.93 K	138.7	–
187.79 K	139.5	–
188.45 K	140.2	–
189.23 K	140.9	–
189.99 K	141.7	–
190 K	141.7	–
190.32 K	141.9	–
190.4 K	142	–
191.52 K	143.1	–
192.18 K	143.7	–
192.46 K	144.1	–
193.79 K	145.4	–
194.04 K	145.5	–
194.36 K	146	–
194.42 K	146	–
195.89 K	147.4	–
196.05 K	147.7	–
196.36 K	147.9	–
196.53 K	148.2	–
197.73 K	149.3	–
198.3 K	150	–
198.69 K	150.5	–
199.56 K	151.3	–
200 K	151.5	–
200.23 K	152	–
200.54 K	152.4	–
200.84 K	152.9	–
201.38 K	153.4	–
202.15 K	154.2	–
202.82 K	155.2	–
202.98 K	155.5	–
203.2 K	155.5	–
204.05 K	156.6	–
205 K	157.8	–
205.1 K	158.3	–
205.14 K	158.2	–
205.95 K	159.3	–
206.79 K	160.4	–
207.21 K	161.1	–
207.45 K	161.3	–
207.83 K	162	–
208.58 K	163	–
209.3 K	164.2	–
209.7 K	164.9	–
209.73 K	164.8	–
210 K	161.4	–
210.51 K	166.1	–
211.48 K	167.6	–
211.99 K	168.4	–
212.63 K	169.5	–
213.77 K	171.3	–
214.23 K	172.1	–
214.72 K	172.9	–
216.04 K	174.8	–
216.46 K	175.1	–
216.8 K	176	–
218.3 K	178.6	–
218.66 K	178.8	–
218.86 K	179	–
220 K	171.2	–
220.53 K	182.2	–
220.85 K	182.3	–
220.9 K	182.4	–
222.77 K	186.2	–
222.93 K	186.4	–
223.02 K	186.5	–
224.94 K	191.2	–
224.97 K	190.4	–
225.17 K	191	–
226.94 K	195.7	–
227.09 K	196.6	–
227.29 K	196	–
228.88 K	201.4	–
229.2 K	202.9	–
229.37 K	202.7	–
230.8 K	208.3	–
231.27 K	210.9	–
231.43 K	210.5	–
232.67 K	217.3	–
233.3 K	221.6	–
233.43 K	221.3	–
234.49 K	229.7	–
235.25 K	237.1	–
235.37 K	236.9	–
236.24 K	248.1	–
240 K	190.8	–
245.03 K	195.7	193.8
245.63 K	–	195.7
245.81 K	–	194.6
